Data from paper PMC5218480 (PLoS ONE, 2017).

Test system: MV-4-11 cells
Test: Gene expression microarray analysis (Affymetrix PrimeView) and GSEA
Type: cell-based, human
Design: RFU PODN (11730768_x_at) / Fold change /veh PODN (11730768_x_at) / RFU LINC00158 (11744669_a_at) / Fold change /veh LINC00158 (11744669_a_at) / RFU DUSP10 (11751237_a_at) / Fold change /veh DUSP10 (11751237_a_at) / RFU ID3 (11757404_x_at) / Fold change /veh ID3 (11757404_x_at) / RFU PLEKHG5 (11737974_s_at) / Fold change /veh PLEKHG5 (11737974_s_at) / RFU LRRC4B (11730491_at) / Fold change /veh LRRC4B (11730491_at) / RFU GIMAP4 (11747438_a_at) / Fold change /veh GIMAP4 (11747438_a_at) / RFU KRT8 (11758183_x_at) / Fold change /veh KRT8 (11758183_x_at) / RFU CNN1 (11734310_a_at) / Fold change /veh CNN1 (11734310_a_at) / RFU VPS37D (11726825_at) / Fold change /veh VPS37D (11726825_at) / RFU C10orf10 (11716522_x_at) / Fold change /veh C10orf10 (11716522_x_at) / RFU KIR2DL2 /// KIR2DL4 /// KIR2DL5A /// KIR2DL5B /// KIR2DS1 /// KIR2DS2 /// KIR2DS3 /// KIR2DS4 /// KIR3DL3 /// KIR3DL3 /// KIR3DS1 (11738374_at) / Fold change /veh KIR2DL2 /// KIR2DL4 /// KIR2DL5A /// KIR2DL5B /// KIR2DS1 /// KIR2DS2 /// KIR2DS3 /// KIR2DS4 /// KIR3DL3 /// KIR3DL3 /// KIR3DS1 (11738374_at) / RFU C1QL1 (11718748_at) / Fold change /veh C1QL1 (11718748_at) / RFU TMPRSS4 (11747572_a_at) / Fold change /veh TMPRSS4 (11747572_a_at) / RFU HAMP (11756126_x_at) / Fold change /veh HAMP (11756126_x_at) / RFU RNFT2 (11725882_a_at) / Fold change /veh RNFT2 (11725882_a_at) / RFU NR4A2 (11747474_a_at) / Fold change /veh NR4A2 (11747474_a_at) / RFU ABCC12 (11746883_a_at) / Fold change /veh ABCC12 (11746883_a_at) / RFU TMEM136 (11760407_x_at) / Fold change /veh TMEM136 (11760407_x_at) / RFU CLDN22 /// WWC2 (11732394_at) / Fold change /veh CLDN22 /// WWC2 (11732394_at) / RFU HLA-DPB1 (11760878_x_at) / Fold change /veh HLA-DPB1 (11760878_x_at) / RFU SPINT1 (11716480_a_at) / Fold change /veh SPINT1 (11716480_a_at) / RFU GAP43 (11754022_s_at) / Fold change /veh GAP43 (11754022_s_at) / RFU A4GNT (11735810_at) / Fold change /veh A4GNT (11735810_at) / RFU PRB3 (11715151_x_at) / Fold change /veh PRB3 (11715151_x_at) / RFU TUBB4B (11761932_at) / Fold change /veh TUBB4B (11761932_at) / RFU CAPN14 (11732068_a_at) / Fold change /veh CAPN14 (11732068_a_at) / RFU TMCC2 (11721928_a_at) / Fold change /veh TMCC2 (11721928_a_at) / RFU IRGQ (11745062_a_at) / Fold change /veh IRGQ (11745062_a_at) / RFU FAM174B (11720279_a_at) / Fold change /veh FAM174B (11720279_a_at) / RFU TMPRSS4 (11748680_a_at) / Fold change /veh TMPRSS4 (11748680_a_at) / RFU FAM212B (11763350_a_at) / Fold change /veh FAM212B (11763350_a_at) / RFU PLEKHG5 (11743358_a_at) / Fold change /veh PLEKHG5 (11743358_a_at) / RFU ZSCAN30 (11745921_a_at) / Fold change /veh ZSCAN30 (11745921_a_at) / RFU CMKLR1 (11741424_a_at) / Fold change /veh CMKLR1 (11741424_a_at) / RFU LOC101060620 /// MAPK8IP1 (11723275_at) / Fold change /veh LOC101060620 /// MAPK8IP1 (11723275_at) / RFU SPTSSB (11747773_x_at) / Fold change /veh SPTSSB (11747773_x_at) / RFU PRSS12 (11739890_at) / Fold change /veh PRSS12 (11739890_at) / RFU BIN1 (11741810_x_at) / Fold change /veh BIN1 (11741810_x_at) / RFU WNT11 (11732464_a_at) / Fold change /veh WNT11 (11732464_a_at) / RFU C10orf10 (11716521_a_at) / Fold change /veh C10orf10 (11716521_a_at) / RFU C5orf56 (11738089_at) / Fold change /veh C5orf56 (11738089_at) / RFU CYB561 (11721691_x_at) / Fold change /veh CYB561 (11721691_x_at) / RFU ANKRD19P (11752326_a_at) / Fold change /veh ANKRD19P (11752326_a_at) / RFU OR2T12 /// OR2T33 /// OR2T8 (11738714_s_at) / Fold change /veh OR2T12 /// OR2T33 /// OR2T8 (11738714_s_at) / RFU VCAN (11748164_a_at) / Fold change /veh VCAN (11748164_a_at) / RFU JSRP1 (11732532_at) / Fold change /veh JSRP1 (11732532_at) / RFU KRTAP10-11 (11738290_x_at) / Fold change /veh KRTAP10-11 (11738290_x_at) / RFU MYO3A (11730013_a_at) / Fold change /veh MYO3A (11730013_a_at) / RFU EBF3 (11725865_a_at) / Fold change /veh EBF3 (11725865_a_at) / RFU CAMK2N1 (11719241_x_at) / Fold change /veh CAMK2N1 (11719241_x_at) / RFU C5orf56 (11738088_a_at) / Fold change /veh C5orf56 (11738088_a_at) / RFU OLFML3 (11715873_a_at) / Fold change /veh OLFML3 (11715873_a_at) / RFU LOC100653217 /// NTM (11731650_a_at) / Fold change /veh LOC100653217 /// NTM (11731650_a_at) / RFU MAPK11 (11762145_a_at) / Fold change /veh MAPK11 (11762145_a_at) / RFU FIZ1 (11724087_x_at) / Fold change /veh FIZ1 (11724087_x_at) / RFU OASL (11726364_x_at) / Fold change /veh OASL (11726364_x_at) / RFU SOX15 (11748057_x_at) / Fold change /veh SOX15 (11748057_x_at) / RFU CD79A (11719716_a_at) / Fold change /veh CD79A (11719716_a_at) / RFU HIST1H1D (11736915_at) / Fold change /veh HIST1H1D (11736915_at) / RFU CASKIN2 (11723855_a_at) / Fold change /veh CASKIN2 (11723855_a_at) / RFU LOC730098 (11760151_x_at) / Fold change /veh LOC730098 (11760151_x_at) / RFU OR4N2 (11742367_at) / Fold change /veh OR4N2 (11742367_at) / RFU PRRT2 (11749266_a_at) / Fold change /veh PRRT2 (11749266_a_at) / RFU SNX32 (11753110_a_at) / Fold change /veh SNX32 (11753110_a_at) / RFU CDHR5 (11726645_a_at) / Fold change /veh CDHR5 (11726645_a_at) / RFU RCAN1 (11760418_a_at) / Fold change /veh RCAN1 (11760418_a_at) / RFU FAM167A (11723789_a_at) / Fold change /veh FAM167A (11723789_a_at) / RFU FAM26E (11764081_at) / Fold change /veh FAM26E (11764081_at) / RFU ISYNA1 (11749810_s_at) / Fold change /veh ISYNA1 (11749810_s_at) / RFU ACY1 (11761880_at) / Fold change /veh ACY1 (11761880_at) / RFU 11764098_at / Fold change /veh 11764098_at / RFU SAMD14 (11745864_x_at) / Fold change /veh SAMD14 (11745864_x_at) / RFU NPB (11741838_a_at) / Fold change /veh NPB (11741838_a_at) / RFU TMPRSS6 (11731388_a_at) / Fold change /veh TMPRSS6 (11731388_a_at) / RFU KRTAP10-2 (11738614_at) / Fold change /veh KRTAP10-2 (11738614_at) / RFU ARHGAP8 /// PRR5-ARHGAP8 (11727945_x_at) / Fold change /veh ARHGAP8 /// PRR5-ARHGAP8 (11727945_x_at) / RFU KRTAP5-7 /// NADSYN1 (11734609_at) / Fold change /veh KRTAP5-7 /// NADSYN1 (11734609_at) / RFU RASL12 (11751679_a_at) / Fold change /veh RASL12 (11751679_a_at) / RFU CDKN2B (11736163_a_at) / Fold change /veh CDKN2B (11736163_a_at) / RFU PRF1 (11729649_at) / Fold change /veh PRF1 (11729649_at) / RFU, ZNF638 /// ZNF638-IT1 / Fold change vs veh, ZNF638 /// ZNF638-IT1 / RFU, PANK3 / Fold change vs veh, PANK3 / RFU, SH3YL1 / Fold change vs veh, SH3YL1 / RFU, ZEB2 / Fold change vs veh, ZEB2 / RFU, NRIP1 / Fold change vs veh, NRIP1 / RFU, PTTG1IP / Fold change vs veh, PTTG1IP / RFU, CAPN2 / Fold change vs veh, CAPN2 / RFU, MED14 / Fold change vs veh, MED14 / RFU, SNORA58 / Fold change vs veh, SNORA58 / RFU, C1orf63 / Fold change vs veh, C1orf63 / RFU, LRRFIP1 / Fold change vs veh, LRRFIP1 / RFU, NDUFAF7 / Fold change vs veh, NDUFAF7 / RFU, SLC12A2 / Fold change vs veh, SLC12A2 / RFU, IBTK / Fold change vs veh, IBTK / RFU, ESF1 / Fold change vs veh, ESF1 / Fold change vs veh, TMEM50B / RFU, TAOK1 / Fold change vs veh, TAOK1 / RFU, ACBD3 / Fold change vs veh, ACBD3 / RFU, TMA16 / Fold change vs veh, TMA16 / RFU, RWDD3 / Fold change vs veh, RWDD3 / RFU, BCAT1 / Fold change vs veh, BCAT1 / RFU, EDEM3 / Fold change vs veh, EDEM3 / RFU, TMEM33 / Fold change vs veh, TMEM33 / RFU, WDR75 / Fold change vs veh, WDR75 / RFU, AHCTF1 / Fold change vs veh, AHCTF1 / RFU, TFRC / Fold change vs veh, TFRC / RFU, ZDHHC17 / Fold change vs veh, ZDHHC17 / RFU, NOM1 / Fold change vs veh, NOM1 / RFU, ARL8B / Fold change vs veh, ARL8B / RFU, ZBTB11 / Fold change vs veh, ZBTB11 / RFU, TAMM41 / Fold change vs veh, TAMM41 / RFU, KIAA1704 /// LOC100996395 / Fold change vs veh, KIAA1704 /// LOC100996395 / RFU, ING1 / Fold change vs veh, ING1 / RFU, TRMT61B / Fold change vs veh, TRMT61B / RFU, FUBP3 / Fold change vs veh, FUBP3 / RFU, TP53 / Fold change vs veh, TP53 / RFU, TNKS2 / Fold change vs veh, TNKS2 / RFU, ZFP14 / Fold change vs veh, ZFP14 / RFU, ACTR2 / Fold change vs veh, ACTR2 / RFU, PPP3R1 / Fold change vs veh, PPP3R1 / RFU, PIK3R1 / Fold change vs veh, PIK3R1 / RFU, HNRNPA1 / Fold change vs veh, HNRNPA1 / RFU, RNF170 / Fold change vs veh, RNF170 / RFU, ZNF28 / Fold change vs veh, ZNF28 / RFU, RNGTT / Fold change vs veh, RNGTT / RFU, OGT / Fold change vs veh, OGT / RFU, BRD1 / Fold change vs veh, BRD1 / RFU, MARS / Fold change vs veh, MARS / RFU, ZNF655 / Fold change vs veh, ZNF655 / RFU, FAHD1 / Fold change vs veh, FAHD1 / RFU, BDP1 / Fold change vs veh, BDP1 / RFU, LRRCC1 / Fold change vs veh, LRRCC1 / RFU, ARID1A / Fold change vs veh, ARID1A / RFU, ZNF146 / Fold change vs veh, ZNF146 / RFU, ZNF330 / Fold change vs veh, ZNF330 / RFU, GPN3 / Fold change vs veh, GPN3 / RFU, C9orf123 / Fold change vs veh, C9orf123 / RFU, N4BP2L2 / Fold change vs veh, N4BP2L2 / RFU, ARFIP1 / Fold change vs veh, ARFIP1 / RFU, FAM179B / Fold change vs veh, FAM179B / RFU, BCL10 / Fold change vs veh, BCL10 / RFU, UHRF1BP1L / Fold change vs veh, UHRF1BP1L / RFU, BET1 / Fold change vs veh, BET1 / RFU, CNOT2 / Fold change vs veh, CNOT2 / RFU, ZNF268 / Fold change vs veh, ZNF268 / Fold change vs veh, ZNF507 / RFU, DGCR2 / Fold change vs veh, DGCR2 / RFU, WDSUB1 / Fold change vs veh, WDSUB1 / Fold change vs veh, HSP90B1 /// MIR3652 / RFU, ADSS / Fold change vs veh, ADSS / RFU, GK / Fold change vs veh, GK / RFU, ZNF148 / Fold change vs veh, ZNF148 / RFU, TAF9 / Fold change vs veh, TAF9 / RFU, SLC1A5 / Fold change vs veh, SLC1A5 / RFU, SLMO2 / Fold change vs veh, SLMO2 / RFU, ABCC4 / Fold change vs veh, ABCC4 / RFU, LOC101060439 /// RAP1B / Fold change vs veh, LOC101060439 /// RAP1B / RFU, RFX7 / Fold change vs veh, RFX7 / RFU, GTPBP10 / Fold change vs veh, GTPBP10 / RFU, CNEP1R1 / Fold change vs veh, CNEP1R1 / RFU, BIVM-ERCC5 /// ERCC5 / Fold change vs veh, BIVM-ERCC5 /// ERCC5 / RFU, ILF3 / Fold change vs veh, ILF3 / RFU 11762660_at / Fold change /veh 11762660_at / RFU VCAN (11757783_s_at) / Fold change /veh VCAN (11757783_s_at) / RFU DDX43 (11728927_at) / Fold change /veh DDX43 (11728927_at) / RFU KRT8 (11758188_x_at) / Fold change /veh KRT8 (11758188_x_at) / RFU NKD1 (11759106_at) / Fold change /veh NKD1 (11759106_at) / RFU SRD5A1 (11742802_a_at) / Fold change /veh SRD5A1 (11742802_a_at) / RFU TPSAB1 /// TPSB2 (11721975_s_at) / Fold change /veh TPSAB1 /// TPSB2 (11721975_s_at) / RFU GSTM3 (11746129_a_at) / Fold change /veh GSTM3 (11746129_a_at) / RFU IL23R (11737362_x_at) / Fold change /veh IL23R (11737362_x_at) / RFU TMEM51 (11727254_a_at) / Fold change /veh TMEM51 (11727254_a_at) / RFU PIWIL2 (11732686_x_at) / Fold change /veh PIWIL2 (11732686_x_at) / RFU ORM1 (11744905_x_at) / Fold change /veh ORM1 (11744905_x_at) / RFU CCDC152 (11743942_at) / Fold change /veh CCDC152 (11743942_at) / RFU ECM1 (11717891_a_at) / Fold change /veh ECM1 (11717891_a_at) / RFU IL23R (11748794_a_at) / Fold change /veh IL23R (11748794_a_at) / RFU TNFAIP8L3 (11732012_x_at) / Fold change /veh TNFAIP8L3 (11732012_x_at) / RFU MBOAT4 (11741988_at) / Fold change /veh MBOAT4 (11741988_at) / RFU 11764193_at / Fold change /veh 11764193_at / RFU TMEM53 (11763286_at) / Fold change /veh TMEM53 (11763286_at) / RFU MAGEB2 (11727129_at) / Fold change /veh MAGEB2 (11727129_at) / RFU TMEM200A (11744735_a_at) / Fold change /veh TMEM200A (11744735_a_at) / RFU CCDC152 (11751479_a_at) / Fold change /veh CCDC152 (11751479_a_at) / RFU FAM211A (11726209_a_at) / Fold change /veh FAM211A (11726209_a_at) / RFU RGS16 (11746705_a_at) / Fold change /veh RGS16 (11746705_a_at) / RFU VCAN (11755009_s_at) / Fold change /veh VCAN (11755009_s_at) / RFU RHOB (11743442_s_at) / Fold change /veh RHOB (11743442_s_at) / RFU RGS16 (11720943_a_at) / Fold change /veh RGS16 (11720943_a_at) / RFU RGS16 (11720944_at) / Fold change /veh RGS16 (11720944_at) / RFU, VPS4B / Fold change vs veh, VPS4B / RFU, CREB1 / Fold change vs veh, CREB1 / RFU, DNAJC13 / Fold change vs veh, DNAJC13 / RFU, GNAQ / Fold change vs veh, GNAQ / RFU, CDK5R1 / Fold change vs veh, CDK5R1 / RFU, ZRANB3 / Fold change vs veh, ZRANB3 / RFU, CUL4A / Fold change vs veh, CUL4A / RFU, CCNY / Fold change vs veh, CCNY / RFU, UFL1 / Fold change vs veh, UFL1 / RFU, COG3 / Fold change vs veh, COG3 / RFU, DIAPH2 / Fold change vs veh, DIAPH2 / RFU, SKA2 / Fold change vs veh, SKA2 / RFU, AFF3 / Fold change vs veh, AFF3 / RFU, LMF1 / Fold change vs veh, LMF1 / RFU, IPO11 / Fold change vs veh, IPO11 / RFU, DFFB / Fold change vs veh, DFFB / RFU, FOXP1 / Fold change vs veh, FOXP1 / RFU, CARD8 / Fold change vs veh, CARD8 / RFU, STRN3 / Fold change vs veh, STRN3 / RFU, ADK / Fold change vs veh, ADK / RFU, RASSF2 / Fold change vs veh, RASSF2 / RFU, WIPF1 / Fold change vs veh, WIPF1 / RFU, LARP1B / Fold change vs veh, LARP1B / RFU, RASA1 / Fold change vs veh, RASA1 / RFU, RB1 / Fold change vs veh, RB1 / RFU, PPFIA1 / Fold change vs veh, PPFIA1 / RFU, MAT2A / Fold change vs veh, MAT2A / RFU, CCT5 / Fold change vs veh, CCT5 / RFU, WDR92 / Fold change vs veh, WDR92 / RFU, CUX1 / Fold change vs veh, CUX1 / RFU, TTC7A / Fold change vs veh, TTC7A / RFU, TMEM135 / Fold change vs veh, TMEM135 / RFU, DEPTOR / Fold change vs veh, DEPTOR / RFU, CPM / Fold change vs veh, CPM / RFU, DNAJB6 / Fold change vs veh, DNAJB6 / RFU, CACNA2D3 / Fold change vs veh, CACNA2D3 / RFU, DTX4 / Fold change vs veh, DTX4 / RFU, TFCP2 / Fold change vs veh, TFCP2 / RFU, GMCL1 /// GMCL1P1 / Fold change vs veh, GMCL1 /// GMCL1P1 / RFU, AEBP2 / Fold change vs veh, AEBP2 / RFU, SNHG1 /// SNORD22 /// SNORD25 /// SNORD26 /// SNORD27 /// SNORD28 /// SNORD29 /// SNORD31 / Fold change vs veh, SNHG1 /// SNORD22 /// SNORD25 /// SNORD26 /// SNORD27 /// SNORD28 /// SNORD29 /// SNORD31 / Fold change (Aza/veh), C12orf56 (ProbeSet 11735607_a_at) / Fold change (ACY-1035/veh), C12orf56 (ProbeSet 11735607_a_at) / Fold change (Aza/veh), FGFR1OP (ProbeSet 11751329_s_at) / Fold change (ACY-1035/veh), FGFR1OP (ProbeSet 11751329_s_at) / Fold change (Aza/veh), VPS36 (ProbeSet 11739960_a_at) / Fold change (ACY-1035/veh), VPS36 (ProbeSet 11739960_a_at) / RFU SYPL1 (11715823_x_at) / Fold change /veh SYPL1 (11715823_x_at) / RFU IGFBP7 (11715501_s_at) / Fold change /veh IGFBP7 (11715501_s_at) / RFU REEP3 (11722064_at) / Fold change /veh REEP3 (11722064_at) / RFU IGLL1 (11728026_x_at) / Fold change /veh IGLL1 (11728026_x_at): dose or concentration left out as unconfirmed
Details: MV-4-11 cells, 48 hours

SMILES: Nc1ccc(-c2cccs2)cc1NC(=O)c1ccc2c(c1)cc(C1CC1)n2CCN1CCOCC1 [ACY-1035]
- Fold change /veh TMEM200A (11744735_a_at): 1.19
